Measured values reported in patent US10907187B2, “Fungal strains and methods of use” (DANISCO US INC., priority 2015, dated 2021).
Where two headings read alike, the source gives them in different places.

Columns and labels:
Format in all cases: cell-based, Trichoderma reesei
[1] = system: T. reesei strain RLP37 NikM743T; assay: Liquid medium fungicide screen, conidiospore germination in YEG; details: all concentrations tested (11.25, 22.5, 45 or 90 μM), overnight at 28° C.
Description: (§1) For use in liquid medium fungicide screens, conidiospores from T. reesei strains RLP37 and RLP37 NikM743T were harvested and diluted to a concentration of 10,000/ml. Equal numbers of spores were inoculated into liquid YEG medium (5 g/L yeast extract, 22 g/1 glucose. H2O) containing 0, 11.25, 22.5, 45 or 90 μM iprodione or fludioxonil and allowed to germinate overnight at 28° C. […] Furthermore, sensitivity of RLP37 and resistance of RLP37 NikM743T persisted when inoculation culture was scaled up to […].

T. reesei strain RLP37 [2] = assay: as above; details: for germination and hyphal growth of conidiospores: 11.25 μM fungicide, overnight at 28° C., 10,000 spores/ml
Description: as §1

[3] = system: T. reesei strain RLP37 Nik^M743T; assay: Agar (solid) medium fungicide screen, colony growth on Vogel's minimal medium with glucose; details: 11.25, 22.5, 45 or 90 μM, agar plates, 3 days at 32° C.
Description: (§2) For use in agar (solid) medium fungicide screens or selections, conidiospores from T. reesei strains RLP37 and RLP37 Nik^M743T were harvested and diluted to a concentration such that a known number of spores were plated per 10 cm plate containing nutrient agar Vogel's minimal medium with glucose (Vogel, Microbial Genet. Bull. 13:42-43 (1956); Vogel, Am. Nat. 98:435-446 (1964)). Equal numbers of spores for each strain were spread onto the surface of nutrient agar plates containing 0, 11.25, 22.5, 45 or 90 μM iprodione and allowed to grow for 3 days at 32° C. […] This mixed population of spores was spread onto Vogel's minimal medium agar containing 45 μM iprodione and allowed to grow for 3 days at 32° C. Colonies were counted and evaluated for presence of the nik1^M743T mutation by PCR and sequencing (Sequetech, Mountain View, Calif., USA), using the following primers: […]

T. reesei strain RLP37 [4] = assay: as above; details: agar plates, 3 days at 32° C.
Description: as §2

SMILES	germination and hyphal growth of conidiospores [1]	germination and growth of conidiospores (T. reesei strain RLP37 [2])	germination and hyphal growth of conidiospores (T. reesei strain RLP37 [2]; liquid YEG medium)	colony growth [3]	colony growth (T. reesei strain RLP37 [4]; 45 μM and above)	colony growth (T. reesei strain RLP37 [4]; 11.25 and 22.5 μM)	germination and growth of conidiospores (T. reesei strain RLP37 [2]; concentrations above 11.25 μM (22.5, 45 or 90 μM), liquid YEG medium, overnight at 28° C.)
CC(C)NC(=O)N1CC(=O)N(c2cc(Cl)cc(Cl)c2)C1=O [iprodione]	germinated and produced elongated hyphae	complete inhibition of germination and growth	clear inhibition of hyphal growth	grew similarly to colonies growing on nutrient agar plates without iprodione	failed to grow at all	failed to grow to any larger than the size of the tip of a pin	–
N#Cc1c[nH]cc1-c1cccc2c1OC(F)(F)O2 [fludioxonil]	germinated and produced elongated hyphae	–	clear inhibition of hyphal growth	–	–	–	complete inhibition of germination and growth
